# According to US20260250270A1, “Compound Used as Kinase Inhibitor and Use Thereof” (TYK MEDICINES, INC., priority 2022, published 2026):
# How the values were obtained:
# [1] = test system: Lung cancer LU0387PDX model; assay: Pharmacodynamic study on lung cancer LU0387PDX model; assay type: in vivo, mice; conditions: LU0387 model, 30 mg/kg, P.O, QD * 13 days
# Description: Lung cancer LU0387PDX model is a commonly used xenograft tumor model from Crown Bioscience, the experimental situation of this model is described as follows: after euthanasia of tumor-bearing mice, the tumor blocks were dissected out in aseptic condition, the blocks were cleaned to remove blood stains and connective tissues and necrotic parts, and the tumors were cut into small pieces of 2*2*2 mm^3, and inoculated with an adapter needle in sterilized experimental mice subcutaneously on the right dorsal side. Tumor growth was regularly observed, and when the tumors grew to an average volume of 100~200 mm^3, mice were randomly grouped according to tumor size and body weight for drug administration. Before the start of drug administration, all animals were weighed and the tumor volume was measured with vernier calipers. Mice were randomly grouped according to tumor volume to ensure that tumor volumes were similar between groups. Three mice in each group were administered orally once daily, and the inoculation site was observed after administration. Tumor volume and mouse body weight were measured twice a week. The experimental design and results were shown in Table 9, wherein P.O referred to administered orally; QD: once a day; TGI (Tumor volume inhibition rate)=(1-Tumor weight of the treatment group/Tumor weight of the control group)*100%.
# [2] = test system: exon 20 insertion mutations in EGFR and HER2; conditions: reported clinical trial results; cited from earlier work
# [3] = target: Ba/F3-FL-EGFR-D770-N771 ins SVD (Homo sapiens, UniProt P00533, DUP768-770, cells depend on it); assay: Cell proliferation inhibition (CellTiter-Glo), EGFR exon 20 insertion engineered cells; assay type: cell-based; conditions: 72 h, read-out: IC50, Ba/F3-FL-EGFR D770-N771ins SVD
# Chain of Ba/F3-FL-EGFR-D770-N771 ins SVD (P00533 with tags, fused parts or gaps DUP768-770): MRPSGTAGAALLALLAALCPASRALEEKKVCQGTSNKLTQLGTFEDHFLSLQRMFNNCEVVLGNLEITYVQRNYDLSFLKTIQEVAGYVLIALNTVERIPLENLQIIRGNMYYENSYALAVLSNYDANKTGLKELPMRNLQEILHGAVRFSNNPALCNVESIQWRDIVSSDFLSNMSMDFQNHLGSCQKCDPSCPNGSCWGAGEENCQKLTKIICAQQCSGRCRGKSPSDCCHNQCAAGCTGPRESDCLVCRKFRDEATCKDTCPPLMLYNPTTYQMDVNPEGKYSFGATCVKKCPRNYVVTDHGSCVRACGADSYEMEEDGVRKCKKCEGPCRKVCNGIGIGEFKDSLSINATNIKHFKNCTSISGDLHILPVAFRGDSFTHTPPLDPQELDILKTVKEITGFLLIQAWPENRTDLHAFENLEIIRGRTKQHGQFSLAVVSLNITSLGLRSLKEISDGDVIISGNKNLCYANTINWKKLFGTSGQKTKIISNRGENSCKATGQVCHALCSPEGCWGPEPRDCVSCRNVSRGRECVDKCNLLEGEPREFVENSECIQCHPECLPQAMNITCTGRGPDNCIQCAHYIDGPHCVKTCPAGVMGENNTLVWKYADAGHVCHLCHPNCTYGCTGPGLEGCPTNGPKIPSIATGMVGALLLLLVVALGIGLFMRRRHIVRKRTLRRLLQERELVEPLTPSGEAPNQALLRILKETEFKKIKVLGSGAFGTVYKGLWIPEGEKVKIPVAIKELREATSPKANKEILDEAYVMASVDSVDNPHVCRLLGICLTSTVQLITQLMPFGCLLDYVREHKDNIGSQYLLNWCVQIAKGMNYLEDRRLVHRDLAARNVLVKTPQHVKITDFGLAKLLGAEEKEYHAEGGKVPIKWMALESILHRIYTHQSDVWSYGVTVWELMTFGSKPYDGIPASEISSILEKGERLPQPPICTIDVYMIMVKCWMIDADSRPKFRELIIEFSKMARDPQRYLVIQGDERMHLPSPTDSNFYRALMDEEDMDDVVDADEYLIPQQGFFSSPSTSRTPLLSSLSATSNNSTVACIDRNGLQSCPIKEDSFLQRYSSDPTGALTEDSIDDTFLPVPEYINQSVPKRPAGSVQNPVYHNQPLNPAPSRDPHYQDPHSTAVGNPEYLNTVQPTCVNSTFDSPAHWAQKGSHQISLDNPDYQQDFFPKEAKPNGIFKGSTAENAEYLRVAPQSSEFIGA
# Method: (§1) The selected engineering cells Ba/F3-FL-EGFR-V769-D770 ins ASV, Ba/F3-FL-EGFR-D770-N771 ins SVD, Ba/F3-FL-EGFR-H773-V774 ins NPH, Ba/F3-FL-EGFR-A763-Y764 ins FQEA, Ba/F3-HER2-A775-G776 ins YVMA were provided by Hefei PreceDo Biomedical Technology Co., LTD and were validated prior to use in this study.
# (§2) A 20× stock of the compound to be tested was prepared for use, with 9 concentrations in 3-fold gradient dilution, diluted from 1 μM.
# (§3) The logarithmic growth phase cell suspension was inoculated into 96-well white cell culture plates with 95 μL volume per well (2000 cells/well). 5 μL of 20× Compound to be tested was added to the plate containing 95 μL of cell suspension according to the plate spreading diagram, and then mixed well. The plate was incubated in a 5% CO2 incubator at 37° C. for 72 h. The proliferation inhibition activity of the compounds was determined by the CellTiter-Glo method, and the fluorescence value per well, RLU, was obtained from the SpectraMax Paradigm reading. Inhibition Rate data were processed using the following formula: Inhibition Rate (Inh %)=100−(RLU compound−RLU blank)/(RLU control−RLU blank)*100%. The cell viability corresponding to different concentrations of compounds was calculated in EXCEL, and then GraphPad Prism software was used to plot the cell viability curve and calculate the IC50 value.
# [4] = target: Ba/F3-FL-EGFR-A763-Y764 ins FQEA (Homo sapiens, UniProt P00533, INS763FQEA, cells depend on it); assay: as above; assay type: cell-based; conditions: 72 h, read-out: IC50, Ba/F3-FL-EGFR A763-Y764ins FQEA
# Chain of Ba/F3-FL-EGFR-A763-Y764 ins FQEA (P00533 with tags, fused parts or gaps INS763FQEA): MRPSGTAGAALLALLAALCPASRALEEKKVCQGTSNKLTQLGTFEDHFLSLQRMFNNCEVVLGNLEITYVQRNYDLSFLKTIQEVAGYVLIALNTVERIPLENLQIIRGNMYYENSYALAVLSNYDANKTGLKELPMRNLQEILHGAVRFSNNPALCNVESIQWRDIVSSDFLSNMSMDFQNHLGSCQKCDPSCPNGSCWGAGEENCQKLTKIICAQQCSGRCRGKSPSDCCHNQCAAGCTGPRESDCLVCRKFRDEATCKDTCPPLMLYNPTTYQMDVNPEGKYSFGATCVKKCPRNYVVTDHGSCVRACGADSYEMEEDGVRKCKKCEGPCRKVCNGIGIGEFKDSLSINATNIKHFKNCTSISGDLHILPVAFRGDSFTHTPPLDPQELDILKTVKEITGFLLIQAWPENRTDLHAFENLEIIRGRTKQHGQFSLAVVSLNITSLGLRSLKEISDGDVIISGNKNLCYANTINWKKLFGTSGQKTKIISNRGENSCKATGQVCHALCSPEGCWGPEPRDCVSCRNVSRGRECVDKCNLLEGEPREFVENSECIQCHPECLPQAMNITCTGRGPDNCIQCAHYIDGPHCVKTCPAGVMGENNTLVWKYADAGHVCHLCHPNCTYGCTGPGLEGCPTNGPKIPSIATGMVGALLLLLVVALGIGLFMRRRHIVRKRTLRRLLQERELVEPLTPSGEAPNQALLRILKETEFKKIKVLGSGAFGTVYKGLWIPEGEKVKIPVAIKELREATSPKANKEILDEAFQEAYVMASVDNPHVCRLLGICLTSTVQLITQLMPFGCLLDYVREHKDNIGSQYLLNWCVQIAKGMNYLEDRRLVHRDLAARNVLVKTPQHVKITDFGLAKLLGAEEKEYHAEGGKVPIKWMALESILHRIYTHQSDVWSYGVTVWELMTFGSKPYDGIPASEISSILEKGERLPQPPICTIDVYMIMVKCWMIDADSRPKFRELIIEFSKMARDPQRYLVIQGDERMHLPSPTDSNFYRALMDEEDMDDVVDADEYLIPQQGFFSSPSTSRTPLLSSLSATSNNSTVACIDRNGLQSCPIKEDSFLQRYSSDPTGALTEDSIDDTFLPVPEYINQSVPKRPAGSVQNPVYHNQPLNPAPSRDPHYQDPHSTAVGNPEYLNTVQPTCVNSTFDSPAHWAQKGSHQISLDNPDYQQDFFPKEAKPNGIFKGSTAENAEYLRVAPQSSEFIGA
# Method: as §1, §2, §3
# [5] = target: Ba/F3-FL-EGFR-H773-V774 ins NPH (Homo sapiens, UniProt P00533, DUP771-773, cells depend on it); assay: as above; assay type: cell-based; conditions: 72 h, read-out: IC50, Ba/F3-FL-EGFR H773-V774ins NPH
# Method: as §1, §2, §3
# [6] = target: Ba/F3-FL-EGFR-V769-D770 ins ASV (Homo sapiens, UniProt P00533, DUP767-769, cells depend on it); assay: as above; assay type: cell-based; conditions: 72 h, read-out: IC50, Ba/F3-FL-EGFR V769-D770ins ASV
# Chain of Ba/F3-FL-EGFR-V769-D770 ins ASV (P00533 with tags, fused parts or gaps DUP767-769): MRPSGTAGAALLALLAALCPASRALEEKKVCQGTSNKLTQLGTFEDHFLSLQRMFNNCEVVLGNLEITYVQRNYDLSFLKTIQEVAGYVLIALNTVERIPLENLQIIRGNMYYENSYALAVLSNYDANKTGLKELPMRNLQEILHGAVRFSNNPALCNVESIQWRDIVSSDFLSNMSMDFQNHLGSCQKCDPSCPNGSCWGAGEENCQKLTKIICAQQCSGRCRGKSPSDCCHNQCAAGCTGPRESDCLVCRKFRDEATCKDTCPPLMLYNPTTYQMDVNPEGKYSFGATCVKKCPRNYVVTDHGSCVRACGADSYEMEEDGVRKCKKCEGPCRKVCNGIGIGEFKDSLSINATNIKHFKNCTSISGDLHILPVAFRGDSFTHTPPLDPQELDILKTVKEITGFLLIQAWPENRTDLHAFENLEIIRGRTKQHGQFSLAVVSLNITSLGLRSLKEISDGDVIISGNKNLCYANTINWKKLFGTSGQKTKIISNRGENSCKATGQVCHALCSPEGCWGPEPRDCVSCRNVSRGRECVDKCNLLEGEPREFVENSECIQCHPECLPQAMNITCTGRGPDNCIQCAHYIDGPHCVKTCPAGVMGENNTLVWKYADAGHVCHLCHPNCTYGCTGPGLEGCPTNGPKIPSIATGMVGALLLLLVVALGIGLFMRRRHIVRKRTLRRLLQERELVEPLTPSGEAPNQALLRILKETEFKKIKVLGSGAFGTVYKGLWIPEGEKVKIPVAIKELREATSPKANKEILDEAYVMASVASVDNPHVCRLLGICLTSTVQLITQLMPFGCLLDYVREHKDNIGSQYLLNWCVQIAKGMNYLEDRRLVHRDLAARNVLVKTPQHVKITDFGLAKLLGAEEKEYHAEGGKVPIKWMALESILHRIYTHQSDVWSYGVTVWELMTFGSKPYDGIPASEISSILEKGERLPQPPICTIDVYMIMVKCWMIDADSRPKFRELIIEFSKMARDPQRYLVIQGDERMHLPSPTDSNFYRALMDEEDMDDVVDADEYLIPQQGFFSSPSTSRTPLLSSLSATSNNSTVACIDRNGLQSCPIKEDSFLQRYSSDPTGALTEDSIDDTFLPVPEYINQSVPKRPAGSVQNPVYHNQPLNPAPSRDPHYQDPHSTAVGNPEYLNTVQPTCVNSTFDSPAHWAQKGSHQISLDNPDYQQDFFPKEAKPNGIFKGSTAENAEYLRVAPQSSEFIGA
# Method: as §1, §2, §3
# NCI-H1975 = assay: Cell proliferation inhibition (CellTiter-Glo) on cell line NCI-H1975; assay type: cell-based; conditions: Homo sapiens
# Method: (§4) The cell lines NCI-H1975 and PC9 selected for the experiments were provided by Sino-American Guanke Biotechnology (Beijing) Co. and were validated prior to use in this study.
# (§5) A 10× stock of the compound to be tested was prepared for use, with 9 concentrations in 4-fold gradient dilution, diluted from 10 μM.
# (§6) The logarithmic growth phase cell suspension was inoculated into a 96-well culture plate with 90 μL volume per well (2000 cells/well). 10 μL of 10× Compound to be tested was added to the plate according to the plate spreading diagram, and then mixed well. The plate was incubated in a 5% CO2 incubator at 37° C. The proliferation inhibitory activity of the compound was determined by the CellTiter-Glo method. Cell proliferation inhibition rate (Inhibition Rate) data were plotted using GraphPad Prism 8.0 software for cell viability curves and IC50 values were calculated.
# [7] = target: Ba/F3-HER2-A775-G776 ins YVMA (Homo sapiens, UniProt P04626, DUP772-775, cells depend on it); assay: Cell proliferation inhibition (CellTiter-Glo), HER2 exon 20 insertion engineered cells; assay type: cell-based; conditions: 72 h, CellTiter-Glo; read-out: IC50, Ba/F3-HER2-A775-G776ins YVMA
# Chain of Ba/F3-HER2-A775-G776 ins YVMA (P04626 with tags, fused parts or gaps DUP772-775): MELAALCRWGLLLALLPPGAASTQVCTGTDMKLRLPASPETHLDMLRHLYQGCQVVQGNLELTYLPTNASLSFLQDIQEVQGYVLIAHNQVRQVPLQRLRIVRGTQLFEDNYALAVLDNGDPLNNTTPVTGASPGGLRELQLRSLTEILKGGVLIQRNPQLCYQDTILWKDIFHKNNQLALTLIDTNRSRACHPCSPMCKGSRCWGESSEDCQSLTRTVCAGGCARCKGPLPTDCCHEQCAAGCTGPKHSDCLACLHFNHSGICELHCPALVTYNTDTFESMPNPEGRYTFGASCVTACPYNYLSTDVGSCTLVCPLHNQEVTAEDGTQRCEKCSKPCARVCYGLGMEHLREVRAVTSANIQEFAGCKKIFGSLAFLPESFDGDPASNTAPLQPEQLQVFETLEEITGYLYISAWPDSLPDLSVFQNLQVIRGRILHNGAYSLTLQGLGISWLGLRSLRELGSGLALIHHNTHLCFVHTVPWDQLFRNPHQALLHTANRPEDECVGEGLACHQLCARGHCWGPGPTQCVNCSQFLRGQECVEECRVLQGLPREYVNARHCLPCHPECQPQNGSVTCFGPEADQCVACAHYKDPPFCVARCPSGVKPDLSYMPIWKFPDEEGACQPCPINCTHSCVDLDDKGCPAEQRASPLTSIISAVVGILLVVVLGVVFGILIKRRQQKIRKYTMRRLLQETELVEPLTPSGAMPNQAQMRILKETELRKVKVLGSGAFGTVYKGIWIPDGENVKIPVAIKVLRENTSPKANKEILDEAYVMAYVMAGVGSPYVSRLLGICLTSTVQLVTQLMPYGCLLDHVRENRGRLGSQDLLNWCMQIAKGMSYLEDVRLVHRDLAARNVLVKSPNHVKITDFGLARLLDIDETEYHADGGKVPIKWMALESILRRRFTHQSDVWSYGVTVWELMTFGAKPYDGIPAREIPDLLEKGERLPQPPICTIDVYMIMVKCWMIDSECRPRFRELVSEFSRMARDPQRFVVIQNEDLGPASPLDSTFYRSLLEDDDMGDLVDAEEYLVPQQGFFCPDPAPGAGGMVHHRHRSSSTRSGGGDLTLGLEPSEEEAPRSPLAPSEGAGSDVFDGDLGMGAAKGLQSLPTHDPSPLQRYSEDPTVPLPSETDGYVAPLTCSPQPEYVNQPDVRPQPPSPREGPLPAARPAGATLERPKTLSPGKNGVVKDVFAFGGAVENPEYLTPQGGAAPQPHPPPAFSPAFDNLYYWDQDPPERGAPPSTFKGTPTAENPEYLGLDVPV
# Method: as §1, §2, §3
# PC9 = assay: Cell proliferation inhibition (CellTiter-Glo) on cell line PC9; assay type: cell-based; conditions: Homo sapiens, PC-9
# Method: as §4, §5, §6
# [8] = Solubility test by visual inspection in 18 solvents; assay type: physicochemical; conditions: room temperature
# Description: The solubility of the free base crystalline form I of the compound of Example 1 was crudely determined by visual inspection in 18 solvents at room temperature. The free base crystalline form I was only highly soluble in dichloroethane and dichloromethane and poorly soluble in most of the solvents tested.
# [9] = Dynamic water vapor adsorption (DVS) test; assay type: physicochemical
# [10] = Competitive pulping of anhydrous crystalline forms I and V; assay type: physicochemical; conditions: saturated acetone and acetonitrile solutions, 25° C. or 50° C.
# [11] = Tablet pressing experiment; assay type: physicochemical; conditions: pressure 30 MPa
# Grinding experiment = assay type: physicochemical
# [12] = Stability experiment (left open, XRPD and liquid chromatography); assay type: physicochemical; conditions: left open at 80° C. 3 days, 60° C. 7 days, 25° C./60% RH 7 days, 40° C./75% RH 7 days, 25° C./90±5% RH 7 days
# Method: In the stability experiment, when the free base crystalline form I was left open at 80° C. for 3 days, 60° C. for 7 days, 25° C./60% RH for 7 days, 40° C./75% RH for 7 days, and 25° C./90±5% RH for 7 days, the samples were taken for XRPD detection, respectively.
# EGFR exon 20ins = conditions: advanced non-small cell lung cancer; cited from earlier work
structure (smiles),measurement,setting,value
"C=CC(=O)Nc1cc(Nc2ncc(C(=O)OC(C)C)c(-c3cn(C)c4ccccc34)n2)c(OC)cc1N(C)CCN(C)C [TAK-788, reference compound]",TGI (%),[1],68.03%
same,objective remission rate,[2],43%
same,GI50,[3],≤ 30 nM
same,GI50,[4],≤ 30 nM
same,GI50,[5],≤ 30 nM
same,GI50,[6],≤ 30 nM
same,IC50,NCI-H1975,≤ 30 nM
same,GI50,[7],≤ 30 nM
same,IC50,PC9,≤ 30 nM
C=CC(=O)Nc1cc(Nc2ncc(C(=O)OC(C)C)c(-c3cn(C)c4ccccc34)n2)c(OC)cc1N(C)[C@@H]1[C@@H]2CN(C)C[C@@H]21 [free base crystalline form I],solubility,"[8]; organic solvent or mixture, thermodynamic from solid, 1,4-dioxane",< 270 µg/mL
same,solubility,"[8]; organic solvent or mixture, thermodynamic from solid, Acetone",2220 to 4440 µg/mL
same,solubility,"[8]; organic solvent or mixture, thermodynamic from solid, Acetonitrile",930 to 1010 µg/mL
same,solubility,"[8]; organic solvent or mixture, thermodynamic from solid, Butanone",2780 to 4440 µg/mL
same,solubility,"[8]; organic solvent or mixture, thermodynamic from solid, Cyclohexane",< 330 µg/mL
same,solubility,"[8]; organic solvent or mixture, thermodynamic from solid, Dichloroethane",61800 to 124000 µg/mL
same,solubility,"[8]; organic solvent or mixture, thermodynamic from solid, Dichloromethane",> 107000 µg/mL
same,solubility,"[8]; organic solvent or mixture, thermodynamic from solid, Dimethylsulfoxide",2600 to 2930 µg/mL
same,solubility,"[8]; organic solvent or mixture, thermodynamic from solid, Ethanol",< 300 µg/mL
same,solubility,"[8]; organic solvent or mixture, thermodynamic from solid, Ethyl acetate",< 290 µg/mL
same,solubility,"[8]; organic solvent or mixture, thermodynamic from solid, Isopropanol",< 350 µg/mL
same,solubility,"[8]; organic solvent or mixture, thermodynamic from solid, Isopropyl acetate",< 300 µg/mL
same,solubility,"[8]; organic solvent or mixture, thermodynamic from solid, Methanol",< 400 µg/mL
same,solubility,"[8]; organic solvent or mixture, thermodynamic from solid, N-Methyl pyrrolidone",18200 to 27400 µg/mL
same,solubility,"[8]; organic solvent or mixture, thermodynamic from solid, Tert-butyl methyl ether",< 330 µg/mL
same,solubility,"[8]; organic solvent or mixture, thermodynamic from solid, Tetrahydrofuran",2550 to 3190 µg/mL
same,solubility,"[8]; organic solvent or mixture, thermodynamic from solid, n-Heptane",< 300 µg/mL
same,solubility,"[8]; thermodynamic from solid, Water",< 270 µg/mL
same,hygroscopicity,[9],slightly hygroscopic
same,weight gain by water absorption,[9]; at 80% RH,0.66%
same,thermodynamic stability versus free base crystalline form V,[10],thermodynamically stable crystalline form
same,crystallinity after tablet pressing,[11],crystallinity slightly decreased
same,solid form after dry grinding,Grinding experiment; 5 min of dry grinding,transformed into amorphous state
same,crystallinity after wet grinding with ethanol,Grinding experiment; 5 min of wet grinding with ethanol,slight decrease in crystallinity
same,crystallinity after wet grinding with water,Grinding experiment; 5 min of wet grinding with water,no significant change in crystallinity
same,"stability, change in liquid chromatography results",[12],no change
same,"stability, change of crystalline form by XRPD",[12],no significant change
"C=CC(=O)Nc1cc(Nc2nccc(Nc3cc(Cl)c(F)cc3C(C)(C)O)n2)c(OC)cc1N1CC[C@@H](N(C)C)C1 [DZD9008, reference compound]",TGI (%),[1],32.55%
same,objective remission rate,EGFR exon 20ins,40%
same,GI50,[3],30 to 100 nM
same,GI50,[4],≤ 30 nM
same,GI50,[5],30 to 100 nM
same,GI50,[6],≤ 30 nM
same,IC50,NCI-H1975,≤ 30 nM
same,GI50,[7],30 to 100 nM
same,IC50,PC9,30 to 100 nM
